Laboratory results reported in publication PMC10709007, “GPR162 is a beta cell CART receptor” (iScience, 2023).
“Also recorded” adds a separate entry of the source. *1 amine or outer side, *2 acyl side, *3 side chain or, on linkers, in order; H or OH if unused. Where a SMILES comes first, the peptide text is derived from it. Bridges are numbered along the chain shown (N, C = ends). Roman numbers before positions name the chains, in order. Where no end group is shown, it is not given here. [ ]: non-standard residue; d: D form. Actinocin(9to1) = Cc1c2oc3c(C)ccc(C(=O)[*:1])c3nc-2c(C(=O)[*:2])c(N)c1=O; NMeV = CN[C@H](C(=O)O)C(C)C; Sar = CNCC(=O)O

Assays:
[1] = tested on: Gpr162 mRNA; parameters: method as in PMID 24937127; settings: streptozotocin-treated rats; cited from earlier work
[2] = tested on: PC12 cells; parameters: method as in PMID 21855138; settings: cited from earlier work
From the text: However, much earlier, a fragment of the CART peptide was identified in extracts of sheep hypothalamus.[2] CART was later found to be expressed also in pancreatic islet cells and in nerve fibers innervating the islets.[3]^,[4]^,[5] […] Among them is the effect of CART on islet hormone secretion fr ...

[3] = tested on: KATO III cells; settings: KATOIII cells; cited from earlier work
From the text: When studying neuropathic pain, Yosten et al.[11] found GPR160 to be necessary for CARTp-mediated cell activation in cell culture. […] Information on GPR160 is scarce, but it has been reported to be a potential marker for prostate cancer,[24] where it is involved in apoptosis and cell-cycle arrest.[25] […] Recently, the notion of GPR160 being the ...

[4] = tested on: CART receptor; settings: cited from earlier work
From the text: However, much earlier, a fragment of the CART peptide was identified in extracts of sheep hypothalamus.[2] CART was later found to be expressed also in pancreatic islet cells and in nerve fibers innervating the islets.[3]^,[4]^,[5] […] Since then, multiple biological effects of CART have been established.[4]^,[7] Among them is the effect of CART on islet hormone secretion fr ...

[5] = tested on: INS-1 832/13 cells; experiment: Radioactive binding of 125I-CARTp55-102 to INS-1 832/13 cells; parameters: species or system rat
Description: ^125I was incorporated into the meta-position of tyrosine side chains of CARTp55-102 using oxidative iodination. 20 μL of a 300 mM phosphate buffer (pH 7.4) was used to resuspend 1 nmol of the CARTp55-102 peptide, after which 0.4 mCi ^125I (NEZ033A, PerkinElmer, Waltham, MA) was added. A volume of 30 μL 3 mg/mL Chloramine-T in phosphate buffer was added gradually while stirring over 6 min, and the reaction was quenched by adding 400 μL H2O with 0.1% trifluoroacetic acid (TFA). The radiolabeled peptide was purified by reversed-phase HPLC on a C18 column and […]. Elution fractions of 1 mL were collected and it was determined where the radiolabeled peptide eluted by measuring γ radiation intensity on a PerkinElmer 2470 Automatic Gamma Counter (PerkinElmer).
INS-1 cells were seeded to 24-well plates and transfected with Gpr162 siRNA (or control siRNA). Two days after transfection cells were assayed for competition binding for 3 h at 4°C using 10–15 p.m. ^125I CARTp55-102 or unlabeled CARTp55-102 in 0.4 mL of 50 mM HEPES buffer (pH7.4 supplemented with 1 mM CaCl2, 5 mM MgCl2 and 0.5% (w/v) bovine serum albumin). After incubation cells were washed two times in binding buffer supplemented with 0.5 M NaCl at 4°C. Non-specific binding was determined as the binding in the presence of 0.1μM unlabeled CARTp55-102.

CN(N=O)C(=O)N[C@H]1C(O)O[C@H](CO)[C@@H](O)[C@@H]1O (mixture of isomers) [streptozotocin]
Gpr162 mRNA expression, brain [1]: increased
Gpr162 mRNA expression, right ventricle of the heart and kidney [1]: reduced Gpr162 mRNA expression

Cc1c2oc3c(C)ccc(C(=O)N[C@@H]4C(=O)N[C@H](C(C)C)C(=O)N5CCC[C@H]5C(=O)N(C)CC(=O)N(C)[C@@H](C(C)C)C(=O)O[C@@H]4C)c3nc-2c(C(=O)N[C@@H]2C(=O)N[C@H](C(C)C)C(=O)N3CCC[C@H]3C(=O)N(C)CC(=O)N(C)[C@@H](C(C)C)C(=O)O[C@@H]2C)c(N)c1=O [actinomycin D] (I: T[dV]P[Sar][NMeV] / II: T[dV]P[Sar][NMeV]; ester I:1-I:C, II:1-II:C; linker I:N-II:N via Actinocin(9to1))
Effect on (radiolabeled) CART binding [2]: inhibited

C[C@@H]1C[C@@H]([C@H](O)CC2CC(=O)NC(=O)C2)C(=O)[C@@H](C)C1 [cycloheximide]
Effect on (radiolabeled) CART binding [2]: inhibited

C-peptide
Effect of GPR160 on C-peptide-induced cFOS expression [3]: GPR160 has no effect on C-peptide-induced cFOS expression

PACAP6-38: CART receptor antagonist (FTDSYSRYRKQMAVKKYLAAVLGKRYKQRVKNK; ends and bridges not checked; UniProt P18509 137-169, looked up, fragment)
CART receptor antagonism [4]: acts as a CART receptor antagonist

^125I-CARTp55-102: ^125I was incorporated into the meta-position of tyrosine side chains of CARTp55-102 using oxidative iodination (IPIYEKKYGQVPMCDAGEQCAVRKGARIGKLCDCPRGTSCNSFLLKCL; ends and bridges not checked; also: 125I in meta-position of tyrosine side chains)
Binding of 125I-CARTp55-102 after Gpr162 siRNA/KD ([5]; Gpr162 KD vs negative control, 3 h at 4°C, 2 days after transfection, n = 3, p < 0.05): binds to a lower extent to Gpr162 KD INS-1 832/13 cells; also recorded: the degree of binding was lower in cells treated with Gpr162 siRNA
Binding of 125I-CARTp55-102 to cells ([5]; competition binding 3 h at 4°C, 50 mM HEPES pH7.4, non-specific with 0.1μM unlabeled CARTp55-102, n = 3): binds to INS-1 832/13 cells

pertussis toxin
CARTp-mediated phosphorylation of ERK [4]: inhibited

radiolabeled CART peptide: radiolabeled CART of cited earlier studies in AtT20 and PC12 cells (IPIYEKKYGQVPMCDAGEQCAVRKGARIGKLCDCPRGTSCNSFLLKCL; ends and bridges not checked; also: 125I in meta-position of tyrosine side chains)
Specific binding in PC12 cells [2]: high-affinity-specific binding in PC12 cells
